Patent US20090163586A1, “Bis-(Sulfonylamino) Derivatives in Therapy 205” (AstraZeneca AB, priority 2007, published 2009)
pIC50: −log10 of the molar value.

The compounds below were run against T1, human mPGES-1 (Homo sapiens, UniProt O14684) (assay: Microsomal prostaglandin E synthase biochemical assay). Settings: microsome preparation containing human mPGES-1; PGH2 10.8 μM, GSH 2.5 mM, pH 6.8; PGE2 by HTRF; average of at least n=2.
T1 sequence (O14684 1-152): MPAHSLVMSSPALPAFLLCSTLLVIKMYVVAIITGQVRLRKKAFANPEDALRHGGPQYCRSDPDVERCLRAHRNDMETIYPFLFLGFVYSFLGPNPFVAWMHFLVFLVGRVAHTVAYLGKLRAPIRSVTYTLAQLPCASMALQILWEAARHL
Outline: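 Human mPGES-1 microsomes at 2 μg/mL were pre-incubated 15 min with compound (60 μM to 0.002 μM) in 50 mM potassium phosphate pH 6.8 with 2.5 mM GSH. The reaction was started with 10.8 μM PGH2 and stopped after 1 minute with acidic ferric chloride/citrate. PGE2 was quantified by HTRF; IC50 is the mean of at least 2 runs.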
Work on `COc1ncc(-c2cccc(S(=O)(=O)Nc3ccccc3S(N)(=O)=O)c2)cc1F` [Example 164, 3-(5-Fluoro-6-methoxy-pyridin-3-yl)-N-(2-sulfamoylphenyl)benzenesulfonamide] yielded a pIC50 of 6.72.
`COc1cc(Cl)ccc1CCS(=O)(=O)Nc1cc(C#N)ccc1S(N)(=O)=O` [Example 181, 2-(2-(4-Chloro-2-methoxyphenyl)ethylsulfonamido)-4-cyanobenzenesulfonamide] showed a pIC50 of 6.43.
`COc1ccc(Br)cc1/C=C/S(=O)(=O)Nc1ccccc1S(N)(=O)=O` [Example 29, 2-[[(E)-2-(5-Bromo-2-methoxy-phenyl)ethenyl]sulfonylamino]benzenesulfonamide] showed a pIC50 of 6.55.
Compound `NS(=O)(=O)c1cc(F)ccc1NS(=O)(=O)/C=C/c1ccc(-c2cc3ccccc3o2)cc1` [Example 4, 2-[[(E)-2-(4-Benzofuran-2-ylphenyl)ethenyl]sulfonylamino]-5-fluoro-benzenesulfonamide] has a pIC50 of 7.10.
For `NS(=O)(=O)c1cc(Cl)ccc1NS(=O)(=O)c1cccc(Cl)c1Cl` [Example 195, 2,3-Dichloro-N-(4-chloro-2-sulfamoylphenyl)benzenesulfonamide], the pIC50 was 5.26.
`NS(=O)(=O)c1ccccc1NS(=O)(=O)/C=C/c1ccc(Br)cc1` [Example 106, 2-[[(E)-2-(4-Bromophenyl)ethenyl]sulfonylamino]benzenesulfonamide] showed a pIC50 of 7.13.
For `COc1cc(Cl)ccc1CCS(=O)(=O)Nc1ccccc1S(N)(=O)=O` [Example 186, 2-(2-(4-Chloro-2-methoxyphenyl)ethylsulfonamido)benzenesulfonamide], the pIC50 was 6.60.
Work on `COc1cc(Cl)ccc1CCS(=O)(=O)Nc1cc(Cl)ccc1S(N)(=O)=O` [Example 228, 4-Chloro-2-(2-(4-chloro-2-methoxyphenyl)ethylsulfonamido)benzenesulfonamide] yielded a pIC50 of 6.89.
Compound `NS(=O)(=O)c1ccccc1NS(=O)(=O)CCc1ccc(-c2cc3ccccc3o2)cc1` [Example 1, 2-[2-(4-Benzofuran-2-ylphenyl)ethylsulfonylamino]benzenesulfonamide] has a pIC50 of 6.89.
`COc1ccc(Cl)cc1-c1cccc(S(=O)(=O)Nc2ccccc2S(N)(=O)=O)c1` [Example 115, 3-(5-Chloro-2-methoxy-phenyl)-N-(2-sulfamoylphenyl)benzenesulfonamide] was tested, and the pIC50 was 5.59.
`NS(=O)(=O)c1ccccc1NS(=O)(=O)CCc1ccccc1Cl` [Example 76, 2-[2-(2-Chlorophenyl)ethylsulfonylamino]benzenesulfonamide] showed a pIC50 of 5.92.
Work on `COc1ccc(/C=C/S(=O)(=O)Nc2ccccc2S(N)(=O)=O)cc1` [Example 77, 2-[[(E)-2-(4-Methoxyphenyl)ethenyl]sulfonylamino]benzenesulfonamide] yielded a pIC50 of 5.51.
Work on `CSc1ccc(/C=C/S(=O)(=O)Nc2ccc(F)cc2S(N)(=O)=O)cc1` [Example 38, 5-Fluoro-2-[[(E)-2-(4-methylsulfanylphenyl)ethenyl]sulfonylamino]-benzenesulfonamide] yielded a pIC50 of 6.66.
`NS(=O)(=O)c1ccccc1NS(=O)(=O)/C=C/c1ccccc1O` [Example 225, 2-[2-(2-Hydroxy-phenyl)-ethenesulfonylamino]-benzenesulfonamide] showed a pIC50 of 5.20.
For `NS(=O)(=O)c1ccccc1NS(=O)(=O)/C=C/c1ccc(-c2cc3ccccc3o2)cc1` [Example 3, 2-[[(E)-2-(4-Benzofuran-2-ylphenyl)ethenyl]sulfonylamino]benzenesulfonamide], the pIC50 was 6.85.
`C/C(=C\c1ccc(Cl)cc1)S(=O)(=O)Nc1ccc(F)cc1S(N)(=O)=O` [Example 12, 2-[[(E)-1-(4-Chlorophenyl)prop-1-en-2-yl]sulfonylamino]-5-fluoro-benzenesulfonamide] was tested, and the pIC50 was 6.00.
For `NS(=O)(=O)c1ccc(Cl)cc1NS(=O)(=O)CCc1ccc(Cl)c(Cl)c1` [Example 231, 4-Chloro-2-(2-(3,4-dichlorophenyl)ethylsulfonamido)benzenesulfonamid], the pIC50 was 6.89.
With `NS(=O)(=O)c1cc(F)cc(F)c1NS(=O)(=O)CCc1ccc(Cl)c(Cl)c1` [Example 229, 2-(2-(3,4-Dichlorophenyl)ethylsulfonamido)-3,5-difluorobenzenesulfonamide] the pIC50 was 5.26.
`Cc1ccc(NS(=O)(=O)c2cccc(-c3cccc(OC(F)(F)F)c3)c2)c(S(N)(=O)=O)c1` [Example 152, 5-Methyl-2-[[3-[3-(trifluoromethoxy)phenyl]phenyl]sulfonylamino]-benzenesulfonamide] showed a pIC50 of 5.41.
`NS(=O)(=O)c1ccccc1NS(=O)(=O)c1cccc(-c2ccc(F)cc2F)c1` [Example 143, 2-[[3-(2,4-Difluorophenyl)phenyl]sulfonylamino]benzenesulfonamide] gave a pIC50 of 5.96.
`NS(=O)(=O)c1ccccc1NS(=O)(=O)/C=C/c1ccccc1OC(F)(F)F` [Example 221, (E)-2-(2-(2-(trifluoromethoxy)phenyl)vinylsulfonamido)benzenesulfonamide] gave a pIC50 of 6.38.
`CC(C)(C)C#Cc1ccc(CCS(=O)(=O)Nc2ccsc2S(N)(=O)=O)cc1` [Example 214, 3-{2-[4-(3,3-Dimethyl-but-1-ynyl)-phenyl]-ethanesulfonylamino}-thiophene-2-sulfonic acid amide] showed a pIC50 of 5.85.
Compound `NS(=O)(=O)c1ccccc1NS(=O)(=O)c1ccc(C(F)(F)F)cc1` [Example 131, N-(2-Sulfamoylphenyl)-4-(trifluoromethyl)benzenesulfonamide] has a pIC50 of 5.18.
`NS(=O)(=O)c1cc(F)ccc1NS(=O)(=O)/C=C/c1ccccc1C(F)(F)F` [Example 100, 5-Fluoro-2-[[(E)-2-[2-(trifluoromethyl)phenyl]ethenyl]sulfonylamino]-benzenesulfonamide] gave a pIC50 of 5.40.
`NS(=O)(=O)c1ccccc1NS(=O)(=O)/C=C/c1ccccc1OC(F)F` [Example 217, (E)-2-(2-(2-(difluoromethoxy)phenyl)vinylsulfonamido)benzenesulfonamide] was tested, and the pIC50 was 6.96.
`COc1ncc(-c2cccc(S(=O)(=O)Nc3ccsc3S(N)(=O)=O)c2)cc1Cl` [Example 215, 3-[3-(5-Chloro-6-methoxy-pyridin-3-yl)-benzenesulfonylamino]-thiophene-2-sulfonic acid amide] gave a pIC50 of 6.13.
Compound `NS(=O)(=O)c1c(F)cccc1NS(=O)(=O)/C=C/c1cccc(Cl)c1` [Example 56, 2-[[(E)-2-(3-Chlorophenyl)ethenyl]sulfonylamino]-6-fluoro-benzenesulfonamide] has a pIC50 of 6.28.
For `COc1cc(Cl)ccc1CCS(=O)(=O)Nc1ccc(C)cc1S(N)(=O)=O` [Example 205, 2-(2-(4-Chloro-2-methoxyphenyl)ethylsulfonamido)-5-methylbenzenesulfonamide], the pIC50 was 6.25.
`C/C(=C\c1ccc(Cl)cc1)S(=O)(=O)Nc1ccc(C)cc1S(N)(=O)=O` [Example 15, 2-[[(E)-1-(4-Chlorophenyl)prop-1-en-2-yl]sulfonylamino]-5-methyl-benzenesulfonamide] gave a pIC50 of 5.12.
Work on `NS(=O)(=O)c1ccc(F)cc1NS(=O)(=O)/C=C/c1ccc(OC(F)F)cc1` [Example 41, 2-[[(E)-2-[4-(Difluoromethoxy)phenyl]ethenyl]sulfonylamino]-4-fluoro-benzenesulfonamide] yielded a pIC50 of 5.96.
For `NS(=O)(=O)c1cc2c(cc1NS(=O)(=O)CCc1ccc(-c3ccco3)cc1)CCC2` [Example 235, 6-(2-(4-(Furan-2-yl)phenyl)ethylsulfonamido)-2,3-dihydro-1H-indene-5-sulfonamid], the pIC50 was 5.21.
